The record followed here is US20140336216A1, “PHYSIOLOGICAL LIGANDS FOR GPR139” (Janssen Pharmaceutica NV, priority 2013, published 2014).

Values joined by “and” are separate entries in the source; they are usually repeats but may differ in a detail not shown here. Equal entries are not always repeated.

For the first assay, the target named is T1, GPR139 (Homo sapiens, UniProt Q6DWJ6).
T1 sequence (Q6DWJ6 1-353): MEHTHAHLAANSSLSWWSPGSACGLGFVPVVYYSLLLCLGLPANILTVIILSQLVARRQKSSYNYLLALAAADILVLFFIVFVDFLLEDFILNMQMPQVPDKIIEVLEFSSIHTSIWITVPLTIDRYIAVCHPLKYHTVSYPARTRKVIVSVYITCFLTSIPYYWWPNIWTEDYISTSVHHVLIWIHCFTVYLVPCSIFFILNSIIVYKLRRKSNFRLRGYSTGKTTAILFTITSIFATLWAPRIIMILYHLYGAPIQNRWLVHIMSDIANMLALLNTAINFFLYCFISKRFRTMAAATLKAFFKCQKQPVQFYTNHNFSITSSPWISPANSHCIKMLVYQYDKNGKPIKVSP
The assay is described as follows: GTPγS binding assay, single-concentration screen, COS7 membranes co-expressing GPR139 and GO2Q. Particulars: 1 mM final concentration; COS7 membranes co-expressing GPR139 and GO2Q; single wells of triplicate. Also on record: expressed in transfected cells; host or cells: COS7 (membranes). The class given is biochemical. As for the experimental part:
(§1) In order identify the ligands for GPR139 two improvements in the detection assay were made to allow for the ligands to be detected. First, we chose to use a GTPγS binding assay instead of using live cultured cells. The GTPγS binding assay is a cell free system that uses the cell membrane of the cell(s) of interest rather than the live cell(s). One advantage of this assay is that potential ligands present in the cell culture media are washed away when the cell membrane is prepared. This reduces the basal level of signal and increase the chance of detecting receptor ligands when assessing compounds that activate the receptor. Second, a GO2Q chimeric G-protein was created to be co-expressed with GPR139 in order to increase the signal-to-noise ratio in the GTPγS binding assay. Historically, the Gi, Go coupled GPCRs offer much greater signal-to-noise ratio in GTPγS binding studies. For Gs and Gq coupled GPCRs, although ligand-stimulated specific signals can be detected in a GTPγS binding assay, the signal-to-noise ratios are often very small. To address this a chimeric GO2-Gq chimeric G-protein, GO2Q, with the N-terminus from Go2 protein and the C-terminus from Gq protein.
(§2) To test for compounds that activate GPR139, different amino acids and their derivatives (Table 2) were tested as ligands in the GTPγS binding assay using cell membranes from COS7 cells co-expressing GPR139 and GO2Q. Cell membrane from COS7 cells expressing GO2Q alone or co-expressing other GPCRs were also tested in GTPγS binding assay in parallel as controls. Each compound was tested in triplicate.
As for `NCCc1ccc(O)c(O)c1` [DA], the “Activation levels of GPR139 (GTPγS binding), GPR139-GO2Q” value is 2688 and 2825 and 2708.

Another assay relates to GO2Q alone. The assay is described as follows: GTPγS binding assay, control COS7 membranes expressing GO2Q alone (Ct-GO2Q). The class given is biochemical. To be noted: 1 mM final concentration; COS7 membranes expressing GO2Q alone; single wells of triplicate. As for the experimental part:
as §1, §2
`NCCc1ccc(O)c(O)c1` [DA]: the “Activation levels (GTPγS binding), Ct-GO2Q” value was 2250 and 2213 and 2319.

The next assay has as its target T1, GPR139. The assay is described as follows: Calcium mobilization assay (FLIPR), GPR139 expressed in HEK293 cells. The class given is cell-based. Also on record: expressed in transfected cells; host or cells: HEK293 (transient). To be noted: 300 μM; calcium mobilization as percentage of that observed for L-phenylalanine. The procedure:
FIG. 3A and FIG. 3B: Provides the results of experiments conducted to determine whether Trp and its derivatives (FIG. 3A) and Phe and its derivatives (FIG. 3B) stimulate Ca^2+ mobilization in HEK293 cells expressing GPR139.
The active compounds were also tested in a calcium mobilization assay (FLIPR® assay). For these experiments human GPR139 was transiently expressed in HEK293 cells and calcium mobilization was stimulated using L-Trp, L-Phe or their derivatives. […] The concentrations of L-Trp and L-Phe in many cell culture media (for instance DMEM is about 80 μM and 750 μM respectively) are close to the EC50 values of L-Trp and L-Phe for GPR139. […] This may explain why GPR139 appeared constitutively active when recombinantly expressed in mammalian cells.
About 300 additional phenylalanine analogues have been tested for GPR139 activation using a calcium mobilization (FLIPR®) assay. The results of these experiments indicate that many of these analogues can also activate GPR139. Table 4 lists certain phenylalanine analogues that have been determined to activate GPR139 by calcium mobilization at a concentration of 300 μM (calcium mobilization is expressed as percentage of that observed for L-phenylalanine).
For orientation: Calcium flux is commonly read through the fluorescence of an indicator in the cells.
Take `CC(C)(C)OC(=O)N1Cc2ccccc2C[C@@H]1C(=O)O` [(3R)-2-tert-butoxycarbony 1-3,4-dihydro-1H-isoquinoline-3-carboxylic acid]: the “% L-phenylalanine at 300 μM (average), calcium mobilization” value (“% L-phenylalanine … calcium mobilization” below) was found to be 155 % L-phenylalanine.

With S-Nitro-L-phenylalanine, the “% L-phenylalanine … calcium mobilization” value was 150 % L-phenylalanine.

For S-(5-bromothienyl)-D-alanine, the “% L-phenylalanine … calcium mobilization” value was determined as 154 % L-phenylalanine.

On to `O=C(O)[C@@H]1Cc2c([nH]c3ccccc23)CN1` [L-1,2,3,4-tetrahydronorharman-3-carboxylic acid], for which the “% L-phenylalanine … calcium mobilization” value is listed as 151 % L-phenylalanine.

In the case of `N[C@H](CCc1ccccc1)C(=O)O` [d-Homo-phenylalanine], the “% L-phenylalanine … calcium mobilization” value was found to be 105 % L-phenylalanine.

In the case of `N[C@@H](Cc1ccc(Br)s1)C(=O)O` [2-(5-bromothienyl)-L-alanine], the “% L-phenylalanine … calcium mobilization” value stood at 151 % L-phenylalanine.

The same assay, now with this note: HEK293, read-out: % L-phenylalanine at 300 μM (average), calcium mobilization.
With `N[C@@H](Cc1ccc([N+](=O)[O-])cc1[N+](=O)[O-])C(=O)O` [2,4-Dinitro-L-phenylalanine], the Emax at 300 µM worked out at 95%.

Regarding `N[C@H](Cc1ccc(Br)cc1)C(=O)O` [4-Bromo-D-phenylalanine], the Emax at 300 µM is 139%.

For `N[C@@H](Cc1ccc(Br)cc1)C(=O)O` [4-Bromo-L-phenylalanine], the Emax at 300 µM amounted to 153%.

Still in this assay, the particulars now being: HEK293; 300 μM; calcium mobilization as percentage of that observed for L-phenylalanine; read-out: % L-phenylalanine at 300 μM (average), calcium mobilization.
On to `N[C@@H](Cc1ccccc1F)C(=O)O` [2-Fluoro-L-phenylalanine], for which the Emax at 300 µM was 119%.

As to `N[C@@H](Cc1ccc(Cl)c(Cl)c1)C(=O)O` [3,4-Dichloro-L-phenylalanine], the Emax at 300 µM is 149%.

As for `N[C@H](Cc1ccc(Cl)c(Cl)c1)C(=O)O` [3,4-Dichloro-D-phenylalanine], the Emax at 300 µM is 149%.

`N[C@H](C(=O)O)C(c1ccccc1)c1ccccc1` [3,3-Diphenyl-L-alanine]: the Emax at 300 µM was 117%.

On to `N[C@H](Cc1ccc(Cl)cc1)C(=O)O` [4-Chloro-D-phenylalanine], for which the Emax at 300 µM was 110%.

With `N[C@H](Cc1ccc(Cl)cc1Cl)C(=O)O` [2,4-Dichloro-D-phenylalanine], the Emax at 300 µM was found to be 135%.

With `N[C@H](CCCc1ccccc1)C(=O)O` [D-2-Amino-5-phenyl-pentanoic acid], the Emax at 300 µM amounted to 129%.

Turning to `N[C@H](Cc1ccc(F)c(F)c1)C(=O)O` [3,4-Difluoro-D-phenylalanine], the Emax at 300 µM turned out to be 121%.

On to `N[C@@H](Cc1cccc(Cl)c1)C(=O)O` [3-Chloro-L-phenylalanine], for which the Emax at 300 µM came to 145%.

Regarding `N[C@@H](Cc1ccc(I)cc1)C(=O)O` [4-Iodo-L-phenylalanine], the Emax at 300 µM worked out at 116%.

As for `N[C@@H](Cc1ccc(Cl)cc1)C(=O)O` [4-Chloro-L-phenylalanine], the Emax at 300 µM worked out at 146%.

Take `COc1ccc(C[C@H](N)C(=O)O)cc1` [4-Methoxy-L-phenylalanine]: the Emax at 300 µM amounted to 128%.

In the case of `N[C@@H](Cc1cccc([N+](=O)[O-])c1)C(=O)O` [3-Nitro-L-phenylalanine], the Emax at 300 µM worked out at 131%.

Turning to `N[C@H](Cc1ccc([N+](=O)[O-])cc1)C(=O)O` [4-Nitro-D-phenylalanine], the Emax at 300 µM was 111%.

Turning to `N[C@H](Cc1c(F)c(F)c(F)c(F)c1F)C(=O)O` [2,3,4,5,6-P entafluoro-D-phenylalanine], the Emax at 300 µM came out at 145%.

Turning to `N[C@H](Cc1ccccc1Br)C(=O)O` [2-Bromo-D-phenylalanine], the Emax at 300 µM was determined as 135%.

For the molecule `N[C@@H](Cc1cccc(C(F)(F)F)c1)C(=O)O` [3-Trifluoromethyl-L-phenylalanine], the Emax at 300 µM was 133%.

Regarding `C[C@](N)(Cc1ccc(F)cc1)C(=O)O` [α-methyl-4-Fluoro-L-phenylalanine], the Emax at 300 µM was found to be 125%.

As for `N[C@@H](Cc1ccccc1Br)C(=O)O` [2-Bromo-L-phenylalanine], the Emax at 300 µM is 168%.

Consider `CC(C)(C)c1ccc(C[C@H](N)C(=O)O)cc1` [4-tert-Butyl-L-phenylalanine], for which the Emax at 300 µM was 115%.

Turning to `Cc1ccc(C[C@H](N)C(=O)O)cc1` [4-Methyl-L-phenylalanine], the Emax at 300 µM is 149%.

`N#Cc1cccc(C[C@@H](N)C(=O)O)c1` [3-Cyano-D-phenylalanine]: the Emax at 300 µM was 93%.

On to `N[C@H](Cc1cccc(Br)c1)C(=O)O` [3-Bromo-D-phenylalanine], for which the Emax at 300 µM was 172%.

On to `N[C@@H](Cc1ccc(F)cc1)C(=O)O` [4-Fluoro-L-phenylalanine], for which the Emax at 300 µM is 132%.

In the case of `N#Cc1cccc(C[C@H](N)C(=O)O)c1` [3-Cyano-L-phenylalanine], the Emax at 300 µM worked out at 115%.

On to `N[C@@H](Cc1ccc(Cl)cc1Cl)C(=O)O` [2,4-Dichloro-L-phenylalanine], for which the Emax at 300 µM amounted to 122%.

For the molecule `N[C@@H](Cc1ccccc1C(F)(F)F)C(=O)O` [2-Trifluoromethyl-L-phenylalanine], the Emax at 300 µM stood at 110%.

Regarding `N[C@H](Cc1ccc(F)cc1)C(=O)O` [4-Fluoro-D-phenylalanine], the Emax at 300 µM turned out to be 91%.

For `N[C@H](Cc1cccc(Cl)c1)C(=O)O` [3-Chloro-D-phenylalanine], the Emax at 300 µM is 147%.

`Cc1ccccc1C[C@H](N)C(=O)O` [2-Methyl-L-phenylalanine]: the Emax at 300 µM was determined as 134%.

Consider `Cc1ccc(C[C@@H](N)C(=O)O)c(C)c1` [2,4-Dimethyl-D-phenylalanine], for which the Emax at 300 µM is 101%.

`N[C@@H](Cc1cccc(F)c1)C(=O)O` [3-Fluoro-L-phenylalanine]: the Emax at 300 µM was determined as 114%.

For the molecule `Cc1ccc(C[C@H](N)C(=O)O)c(C)c1` [2,4-Dimethyl-L-phenylalanine], the Emax at 300 µM came to 113%.

Regarding `Cc1cccc(C[C@H](N)C(=O)O)c1` [3-Methyl-L-phenylalanine], the Emax at 300 µM worked out at 147%.

With `N[C@H](Cc1ccc(I)cc1)C(=O)O` [4-Iodo-D-phenylalanine], the Emax at 300 µM is 125%.

As for `N[C@H](Cc1cc(F)cc(F)c1)C(=O)O` [3,5-Difluoro-D-phenylalanine], the Emax at 300 µM was found to be 102%.

For `N[C@H](Cc1cccc(F)c1)C(=O)O` [3-Fluoro-D-phenylalanine], the Emax at 300 µM turned out to be 94%.

Regarding `N[C@@H](Cc1ccc(C(F)(F)F)cc1)C(=O)O` [4-Trifluoromethyl-L-phenylalanine], the Emax at 300 µM came out at 150%.

For the molecule `Cc1ccccc1C[C@@H](N)C(=O)O` [2-Methyl-D-phenylalanine], the Emax at 300 µM is 109%.

As to `Cc1ccc(C[C@@H](N)C(=O)O)cc1` [4-Methyl-D-phenylalanine], the Emax at 300 µM amounted to 102%.

Regarding `N[C@@H](Cc1cccc(Br)c1)C(=O)O` [3-Bromo-L-phenylalanine], the Emax at 300 µM turned out to be 167%.

For the molecule `N[C@H](Cc1cccc([N+](=O)[O-])c1)C(=O)O` [3-Nitro-D-Phenylalanin], the Emax at 300 µM amounted to 164%.

`Cc1cccc(C[C@@H](N)C(=O)O)c1` [3-Methyl-D-phenylalanine]: the Emax at 300 µM was 150%.
